Bounds are passed on as bounds.

In assay [1] the target is recombinant human MEK 1 (MAPKK) and recombinant human ERK2 (MAPK). The experiment in a line: Mitogen Activated Protein Kinase (MAPK) Assay, coupled MEK/ERK. Conditions: separate entries = evaluated more than once. The assay is classed as biochemical.
Method: To evaluate inhibitors of the MAP (mitogen activated protein) kinase a two component coupled standard pharmacological test procedure, which measures phosphorylation of a serine/threonine residue in an appropriate sequence in the substrate in the presence and absence of a putative inhibitor, was used. Recombinant human MEK 1 (MAPKK) was first used to activate recombinant human ERK2 (MAPK) and the activated MAPK (ERK) was incubated with substrate (MBP peptide or MYC peptide) in the presence of ATP, Mg^+2 and radiolabeled ^33 P ATP. The phosphorylated peptide was captured on a P 81 phosphocellulose filter (paper filter or embedded in microtiter plate) washed and counted by scintillation methods.
The peptide substrates used in the assay are MBP, peptide substrate ([sequence]), or synthetic Myc substrate, ([sequence].cndot.5 TFA. The recombinant enzymes used were prepared as GST fusion proteins of human ERK 2 and human MEK 1. Inhibitor samples were prepared as 10× stocks in 10% DMSO and an appropriate aliquot was used to deliver either 10 ug/ml for a single point screening dose or 100, 10, 1, and 0.1 uM final concentration for a dose response curve. Final DMSO concentrations were less than or equal to 1%.
The reaction was run as follows in 50 mM Tris kinase buffer, pH 7.4 in a reaction volume of 50 ul. The appropriate volume of kinase buffer and inhibitor sample was added to the tube. Appropriate dilution of enzyme was delivered to give 2-5 ug recombinant MAPK (Erk) per tube. The inhibitor was incubated with MAPK (Erk) for min at 0 deg. […] Recombinant Mek (MAPKK) (0.5-2.5 ug) or fully activated Mek (0.05-0.1 units) was added to activate the Erk and incubated for 30 min at 30° C. […] Samples were incubated at 30° C. for 30 minutes and the reaction was stopped by adding 25 μl of ice cold 10% TCA After samples were chilled on ice for 30 min, 20 μl of sample was transferred onto P 81 phosphocellulose filter paper or appropriate MTP with embedded P 81 filter. Filter papers or MTP were washed 2 times with a large volume of 1% acetic acid, then 2 times with water. The filters or MTP were briefly air dried before addition of scintillant and samples were counted in the appropriate scintillation counter set up for reading ^33 P isotope.
The raw data was captured as cpm. Sample replicates were averaged and corrected for background count. Mean cpm data was tabulated by group and % inhibition by a test compound was calculated as (corrected cpm control-corrected. cpm sample/control)×100=% inhibition.
For assay [2], the target named is T1, Kinase insert Domain containing Receptor (KDR; the catalytic domain of the VEGF receptor) (Homo sapiens, UniProt P35968).
T1 construct: KDR; the catalytic domain of the VEGF receptor
The experiment in a line: Inhibition of Kinase insert Domain containing Receptor (KDR). The assay is classed as biochemical.
Method: In this standard pharmacological test procedure, KDR protein is mixed, in the presence or absence of a inhibitor compound, with a substrate peptide to be phosphorylated (a copolymer of glutamic acid and tyrosine, E:Y::4:1) and other cofacters such as Mg^++ and sodium vanadate (a protein tyrosine phosphatase inhibitor) in an appropriate buffer to maintain pH (7.2). ATP and a radioactive tracer (either P^32 - or P^33 -labeled ATP) is then add to initiate phosphorylation. After incubation, the radioactive phosphate associated with the acid-insoluble fraction of the assay mixture is then qualified as reflection of substrate phosphorylation.

The test system of assay [3] is human epidermoid tumors (A431). The assay is described as follows: In vivo inhibition of the growth of human epidermoid tumors (A431) in mice. Details: species or system human tumor in BALB/c nu/nu female mice.
Method: Representative compounds of this invention (listed below) were evaluated in an in vivo standard pharmacological test procedure which measured its ability to inhibit the growth of human epidermoid tumors. […] BALB/c nu/nu female mice (Charles River, Wilmington, Mass.) were used in this in vivo standard pharmacological test procedure. […] When tumors attained a mass of between 100 and 150 mg, the mice were randomized into treatment groups (day zero). Mice were treated IP once a day either on days 1, 5, and 9 or on days 1 through 10 post staging with doses of either 80, 40 or 20 mg/kg/dose of the compound to be evaluated in 0.2% Klucel. Control animals received no drug. Tumor mass was determined every 7 days [(length X width^2)/2] for 28 days post staging. Relative tumor growth (Mean tumor mass on days 7, 14, 21, and 28 divided by the mean tumor mass on day zero) is determined for each treatment group.
Assay [4] has as its target T2, Epidermal Growth Factor Receptor Kinase (His-tagged cytoplasmic domain of EGFR) (Homo sapiens, UniProt P00533).
T2 construct: EGFR cDNA encoding amino acids 645-1186 preceded by Met-Ala-(His)6; made in house; host or cells: Sf9 insect cells, baculovirus vHcEGFR52
The assay is described as follows: Inhibition of Epidermal Growth Factor Receptor Kinase (EGF-R) using recombinant enzyme. Format: biochemical. The conditions noted are these: average of number of tests, RR-SRC peptide.
Method: Representative compounds of the invention were evaluated for their ability to inhibit the phosphorylation of the tyrosine residue of a peptide substrate catalyzed by the enzyme epidermal growth factor receptor kinase. […] The enzyme used in this assay is the His-tagged cytoplasmic domain of EGFR. A recombinant baculovirus (vHcEGFR52) was constructed containing the EGFR cDNA encoding amino acids 645-1186 preceded by Met-Ala-(His)6. Sf9 cells in 100 mm plates were infected at an moi of 10 pfu/cell and cells were harvested 48 h post infection. A cytoplasmic extract was prepared using 1% Triton X-100 and applied to Ni-NTA column. After washing the column with 20 mM imidazole, HcEGFR was eluted with 250 mM imidazole (in 50 mM NaHPO4, pH 8.0, 300 mM NaCl). […]
Compounds to be evaluated were made into 10 mg/mL stock solutions in 100% dimethylsulfoxide (DMSO). […]
For the enzyme reaction, 10 μL of each inhibitor (at various concentrations) were added to each well of a 96-well plate. […] The filter discs were washed 2× with 0.5% phosphoric acid and radioactivity was measured using a liquid scintillation counter.
The % inhibition of the test compound was determined for at least three different concentrations and the IC50 value was evaluated from the dose response curve. […]

The test system of assay [5] is HL60. The experiment in a line: Inhibition of cancer cell growth as measured by cell number. The assay is classed as cell-based, human. Conditions: HL60, 48 hours.
From the text: (§1) The cell lines were chosen since they overexpressed epidermal growth factor receptor (EGFR) (i.e. A431) or HER2/neu (SKBR3), or had little to no expression of the these receptors (SW620, LOX, MCF7).
Assay [6] concerns SKBR3. Described as above. Format: cell-based, human. The conditions noted are these: SKBR3, 48 hours, Table 8.
From the text: as §1
Assay [7] deals with gastric (H^+ /K^+)-ATPase (Sus scrofa, UniProt P19156). The conditions noted are these: Ife R. J., et al., J. Med. Chem., 35(18), 3413 (1992); cited from earlier work.
Setting [8] is: Table 11, 80 IP days 1, 5, 9, day 7.
Where [9] appears, read: Table 11, 80 IP days 1, 5, 9, day 14.
Setting [10] is: Table 11, 80 IP days 1, 5, 9, day 21.
Setting [11] is: Table 11, 80 IP days 1, 5, 9, day 28.
The mark [12] stands for this setting: Table 11, 80 PO days 1-10, day 7.
Where [13] appears, read: Table 11, 80 PO days 1-10, day 14.
Where [14] appears, read: Table 11, 80 PO days 1-10, day 21.
[15] abbreviates: Table 11, 80 PO days 1-10, day 28.
The mark [16] stands for this setting: Table 10, 80 IP days 1, 5, 9, day 7.
The mark [17] stands for this setting: Table 10, 80 IP days 1, 5, 9, day 14.
Where [18] appears, read: Table 10, 80 IP days 1, 5, 9, day 21.
Where [19] appears, read: Table 10, 80 IP days 1, 5, 9, day 28.
Where [20] appears, read: Table 10, 80 PO days 1-10, day 7.
Setting [21] is: Table 10, 80 PO days 1-10, day 14.
[22] abbreviates: Table 10, 80 PO days 1-10, day 21.
The mark [23] stands for this setting: Table 10, 80 PO days 1-10, day 28.

T1 sequence (P35968 834-1162 limits assumed): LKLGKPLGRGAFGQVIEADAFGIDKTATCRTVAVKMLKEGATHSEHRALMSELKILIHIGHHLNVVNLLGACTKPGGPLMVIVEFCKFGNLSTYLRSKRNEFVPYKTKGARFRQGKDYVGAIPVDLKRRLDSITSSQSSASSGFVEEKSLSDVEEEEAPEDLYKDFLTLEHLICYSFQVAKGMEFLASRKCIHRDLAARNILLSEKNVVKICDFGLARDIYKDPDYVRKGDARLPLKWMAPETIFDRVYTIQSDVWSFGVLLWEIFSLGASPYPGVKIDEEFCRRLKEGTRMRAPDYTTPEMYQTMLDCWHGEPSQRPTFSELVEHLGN
T2 sequence (P00533 669-1210): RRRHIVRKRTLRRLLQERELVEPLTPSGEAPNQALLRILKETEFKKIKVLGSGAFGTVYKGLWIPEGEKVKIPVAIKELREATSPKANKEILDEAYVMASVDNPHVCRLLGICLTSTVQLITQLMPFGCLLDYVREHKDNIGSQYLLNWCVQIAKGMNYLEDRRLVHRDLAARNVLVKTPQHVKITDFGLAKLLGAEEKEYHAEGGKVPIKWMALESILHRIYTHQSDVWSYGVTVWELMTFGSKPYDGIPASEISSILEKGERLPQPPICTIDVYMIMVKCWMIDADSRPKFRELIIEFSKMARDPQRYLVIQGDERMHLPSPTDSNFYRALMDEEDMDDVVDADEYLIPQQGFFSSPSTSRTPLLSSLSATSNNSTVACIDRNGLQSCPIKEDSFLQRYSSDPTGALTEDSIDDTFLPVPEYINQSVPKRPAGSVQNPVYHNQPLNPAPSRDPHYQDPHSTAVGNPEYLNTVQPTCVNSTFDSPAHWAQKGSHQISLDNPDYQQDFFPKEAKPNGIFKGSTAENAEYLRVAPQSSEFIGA
Sequence of gastric (H^+ /K^+)-ATPase (P19156 2-1034 limits assumed): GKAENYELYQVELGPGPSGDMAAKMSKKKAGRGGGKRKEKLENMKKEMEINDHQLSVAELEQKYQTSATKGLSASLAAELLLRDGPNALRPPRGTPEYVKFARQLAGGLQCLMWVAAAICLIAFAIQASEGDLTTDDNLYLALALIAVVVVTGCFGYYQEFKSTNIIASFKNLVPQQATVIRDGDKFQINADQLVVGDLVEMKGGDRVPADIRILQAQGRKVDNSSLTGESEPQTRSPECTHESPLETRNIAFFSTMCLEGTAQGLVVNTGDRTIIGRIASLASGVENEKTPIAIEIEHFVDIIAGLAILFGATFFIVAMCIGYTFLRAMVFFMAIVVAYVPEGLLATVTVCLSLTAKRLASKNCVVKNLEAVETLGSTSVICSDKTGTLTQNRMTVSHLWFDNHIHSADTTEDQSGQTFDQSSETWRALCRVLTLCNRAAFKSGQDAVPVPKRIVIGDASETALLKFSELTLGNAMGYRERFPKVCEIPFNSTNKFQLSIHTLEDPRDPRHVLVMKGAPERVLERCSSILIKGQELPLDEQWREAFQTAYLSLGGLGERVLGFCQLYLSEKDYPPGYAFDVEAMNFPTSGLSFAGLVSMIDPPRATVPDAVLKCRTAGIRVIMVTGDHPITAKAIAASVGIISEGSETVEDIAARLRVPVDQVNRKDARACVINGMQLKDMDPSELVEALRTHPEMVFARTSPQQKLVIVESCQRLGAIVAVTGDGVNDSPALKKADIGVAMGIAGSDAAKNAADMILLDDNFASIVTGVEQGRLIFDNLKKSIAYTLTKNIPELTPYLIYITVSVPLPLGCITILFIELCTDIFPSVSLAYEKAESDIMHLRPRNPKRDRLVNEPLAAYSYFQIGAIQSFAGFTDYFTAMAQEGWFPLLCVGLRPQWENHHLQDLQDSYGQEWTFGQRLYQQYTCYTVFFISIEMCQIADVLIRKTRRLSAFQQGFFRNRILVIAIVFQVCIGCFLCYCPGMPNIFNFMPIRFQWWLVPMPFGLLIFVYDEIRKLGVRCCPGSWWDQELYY
Sequence of gastric (H^+ /K^+)-ATPase (P18434 whole entry partner): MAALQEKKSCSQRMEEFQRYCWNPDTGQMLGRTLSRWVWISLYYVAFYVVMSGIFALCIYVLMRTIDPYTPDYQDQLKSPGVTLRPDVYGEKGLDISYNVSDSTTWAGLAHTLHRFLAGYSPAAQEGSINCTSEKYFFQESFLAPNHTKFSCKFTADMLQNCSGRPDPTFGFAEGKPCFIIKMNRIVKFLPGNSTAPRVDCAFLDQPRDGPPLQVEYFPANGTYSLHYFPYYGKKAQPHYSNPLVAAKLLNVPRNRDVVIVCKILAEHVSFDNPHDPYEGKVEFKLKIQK

On to `COCCOc1cc2ncc(C#N)c(Nc3cccc(Br)c3)c2cc1OCCOC` [Example 311, 4-[(3-Bromophenyl)amino]-6,7-bis(2-methoxyethoxy)-3-quinolinecarbonitrile], for which the IC50 in assay [1] stood at 70 µM.

Take `N#Cc1cnc2cc(O)ccc2c1Nc1ccc(Cl)cc1F` [Example 308, 4-(4-Chloro-2-fluorophenylamino)-7-hydroxy-3-quinolinecarbonitrile]: the “KDR IC50” value in assay [2] was 30 µg/mL.

Take `CCOc1cc2ncc(C#N)c(Nc3cccc(Br)c3)c2cc1NC(=O)C=CCN(C)C` [Example 216, 4-Dimethylamino-but-2-enoic acid [4-(3-bromo-phenylamino)-3-cyano-7-ethoxy-quinolin-6-yl]-amide]: the “% T/C” value in assay [3] (setting [8]) is listed as 14%; in assay [3] (setting [9]), 12%; in assay [3] (setting [10]), 17%; in assay [3] (setting [11]), 19%; in assay [3] (setting [12]) it was 6%; in assay [3] (setting [13]) it was 6%. The “% T/C” value in assay [3] (setting [14]) came to 12%; in assay [3] (setting [15]), 21%. The “KDR IC50” value in assay [2] amounted to 30 µg/mL.

`CCN(CC)CC=CC(=O)Nc1ccc2ncc(C#N)c(Nc3cccc(Br)c3)c2c1` [Example 100, 4-Diethylamino-but-2-enoic acid [4-(3-bromo-phenylamino)-3-cyano-quinolin-6-yl]-amide]: the IC50 in assay [4] worked out at 0.1 µM.

For the compound `CCOc1cc2ncc(C#N)c(Nc3cccc(Br)c3)c2cc1NC(=O)C=CCN(CC)CC` [Example 217, 4-Diethylamino-but-2-enoic acid [4-(3-bromo-phenylamino)-3-cyano-7-ethoxy-quinolin-6-yl]-amide], the “% T/C” value in assay [3] (setting [8]) came to 25%; in assay [3] (setting [9]), 36%; in assay [3] (setting [10]), 51%; in assay [3] (setting [11]), 56%; in assay [3] (setting [12]), 30%; in assay [3] (setting [13]), 33%. Besides, the “% T/C” value in assay [3] (setting [14]) turned out to be 43%; in assay [3] (setting [15]), 42%. Besides, the “KDR IC50” value in assay [2] was 30 µg/mL.

On to `C=CC(=O)Nc1cc(CN(C)C)c2ncc(C#N)c(Nc3cccc(Br)c3)c2c1` [Example 111, N-{4-[(3-Bromophenyl)amino]-3-cyano-8-dimethylaminomethyl-6-quinolinyl}-2-propenamide], for which the IC50 in assay [1] came to 100 µM.

Turning to `CCN(CC)CC=CC(=O)Nc1cc2c(Nc3ccc(F)c(Br)c3)c(C#N)cnc2cc1OC` [Example 209, 4Diethylamino-but-2-enoic acid [4(3-bromo-4-fluoro-phenylamino)-3-cyano-7-methoxy-quinolin-6-yl]-amide], the “KDR IC50” value in assay [2] is 30 µg/mL.

In the case of `COc1cc2ncc(C#N)c(Nc3ccc(F)c(Br)c3)c2cc1NC(=O)C=CCN(C)C` [Example 208, 4-Dimethylamino-but-2-enoic acid [4-(3-bromo-4-fluoro-phenylamino)-3-cyano-7-methoxy-quinolin-6-yl]-amide], the “% T/C” value in assay [3] (setting [8]) amounted to 14%; in assay [3] (setting [9]) it was 15%; in assay [3] (setting [10]), 26%; in assay [3] (setting [11]), 32%; in assay [3] (setting [12]) it was 6%; in assay [3] (setting [13]), 6%. In addition, the “% T/C” value in assay [3] (setting [14]) was 8%; in assay [3] (setting [15]), 10%.

As to `CCCCOc1cc2ncc(C#N)c(Nc3cccc(Br)c3)c2cc1OCCCC` [Example 305, 4(3-Bromophenylamino)-6,7-di-n-butoxy-3-quinolinecarbonitrile], the “KDR IC50” value in assay [2] amounted to 30 µg/mL.

For the compound `COc1ccc2c(Nc3ccc(Cl)cc3F)c(C#N)cnc2c1` [Example 307, 4-(4-Chloro-2-fluorophenylamino)-7-methoxy-3-quinolinecarbonitrile], the “KDR IC50” value in assay [2] was determined as 30 µg/mL.

For `CCN(CC)CC=CC(=O)Nc1cc2c(Nc3ccc(F)c(Cl)c3)c(C#N)cnc2cc1OC` [Example 204, 4-Diethylamino-but-2-enoic acid [4-(3-chloro-4-fluoro-phenylamino)-3-cyano-7-methoxy-quinolin-6-yl]-amide], the “% T/C” value stood at 45% in assay [3] (setting [16]); 42% in assay [3] (setting [17]); 55% in assay [3] (setting [18]); 49% in assay [3] (setting [19]); 25% in assay [3] (setting [20]); 18% in assay [3] (setting [21]). For the same compound, the “% T/C” value turned out to be 43% in assay [3] (setting [22]) and 51% in assay [3] (setting [23]).

Consider `COc1ccc2ncc(C#N)c(Nc3ccc(Cl)cc3F)c2c1` [Example 283, 4-(4-Chloro-2-fluoro-phenylamino)-6-methoxy-quinoline-3-carbonitrile], for which the “KDR IC50” value in assay [2] worked out at 30 µg/mL.

As to `COc1cc2ncc(C#N)c(Nc3cccc(C#N)c3)c2cc1OC` [Example 45, 4-[(3-Cyanophenyl)amino]-6,7-dimethoxy-3-quinolinecarbonitrile], the “Inhibition of Cancer Cell Growth as Measured by Cell Number (IC50)” value in assay [5] was more than 1.00 µg/mL.

Consider “4-(3-Bromophenylamino)-6,7-di-methoxymethyl-3-quinolinecarbonitrile [Example 325]”, for which the IC50 in assay [1] was more than 100 µM.

For the compound `C=C(CN1CCOCC1)C(=O)Nc1ccc2ncc(C#N)c(Nc3cccc(Br)c3)c2c1` [Example 171, N-{4-[(3-Bromophenyl)amino]-3-cyano-6-quinolinyl}-2-morpholin-4-ylmethyl-2-propenamide], the half-inhibitory concentration (IC50) in assay [1] came to 100 µM.

Turning to `COc1cc2ncc(C#N)c(Nc3ccc(F)c(Cl)c3)c2cc1NC(=O)C=CCN1CCOCC1` [Example 205, 4-Morpholin-4-yl-but-2-enoic acid [4-(3-chloro-4-fluoro-phenylamino)-3-cyano-7-methoxy-quinolin-6-yl]-amide], the “% T/C” value in assay [3] (setting [16]) is recorded as 30%; in assay [3] (setting [17]), 25%; in assay [3] (setting [18]), 38%; in assay [3] (setting [19]) it was 61%; in assay [3] (setting [20]), 23%; in assay [3] (setting [21]), 19%. Also, the “% T/C” value in assay [3] (setting [22]) is on record as 23%; in assay [3] (setting [23]) it was 29%.

As to `C=CC(=O)Nc1ccc2ncc(C#N)c(Nc3cccc(C#N)c3)c2c1` [Example 160, N-{3-Cyano-4-[(3-cyanophenyl)amino]-6-quinolinyl}-2-propenamide], the “KDR IC50” value in assay [2] stood at 30 µg/mL.

In the case of `CCOc1cc2[nH]cc(C#N)c(=O)c2cc1OCC` [Example 252, 1,4-Dihydroquinoline-6,7-diethoxy-4-oxo-3-carbonitrile], the IC50 in assay [1] was determined as 100 µM.

As to `COc1cc2ncc(C#N)c(Nc3ccc(F)c(Cl)c3)c2cc1NC(=O)C=CCN(C)C` [Example 203, 4-Dimethylamino-but-2-enoic acid [4-(3-chloro-4-fluoro-phenylamino)-3-cyano-7-methoxy-quinolin-6-yl]-amide], in assay [6], the “Inhibition of Cancer Cell Growth as Measured by Cell Number (IC50)” value came out at 0.1 µg/mL. The “% T/C” value in assay [3] (setting [16]) is recorded as 20%; in assay [3] (setting [17]), 12%; in assay [3] (setting [18]) it was 14%; in assay [3] (setting [19]) it was 16%; in assay [3] (setting [20]), 15%; in assay [3] (setting [21]) it was 8%. Further, the “% T/C” value is on record as 12% in assay [3] (setting [22]) and 17% in assay [3] (setting [23]).

Regarding `CN(C)CC=CC(=O)Nc1ccc2ncc(C#N)c(Nc3cccc(Br)c3)c2c1` [Example 99, 4-Dimethylamino-but-2-enoic acid [4-(3-bromo-phenylamino)-3-cyano-quinolin-6-yl]-amide], the IC50 in assay [4] is 0.03 µM.

Consider `COc1ccc2ncc(C#N)c(Nc3ccc(C)c(O)c3)c2c1` [Example 284, 4-(3-Hydroxy-4-methyl-phenylamino)-6-methoxy-quinoline-3-carbonitrile], for which, in assay [2], the “KDR IC50” value amounted to 30 µg/mL.

Turning to `COc1cc2ncc(C#N)c(Nc3cccc(C(C)=O)c3)c2cc1OC` [Example 324, 4(3-acetylphenylamino)-6,7-dimethoxy-3-quinolinecarbonitrile], in assay [1], the 50% inhibitory concentration (IC50) was found to be 100 µM.

Take `COc1ccc(OC)c2c(Nc3ccc(Cl)cc3F)c(C#N)cnc12` [Example 238, 4-(4-Chloro-2-fluoro-phenylamino)-5.8-dimethoxyquinoline-3-carbonitrile]: in assay [1], the concentration for half-maximal inhibition (IC50) is more than 100 µM.

Take `Cc1ccccc1Nc1c(C#N)cnc2ccccc12`: in assay [7], the “gastric (H+/K+)-ATPase inhibitory activity” value is given as “inhibitory activity at high concentrations”.

The IC50 is the point on the concentration scale where inhibition reaches its midpoint.

(Values after patent US6002008A, “Substituted 3-cyano quinolines” (American Cyanamid Company, priority 1998, dated 1999).)
